This passage reports IC50 results from US9999650B2, “Peptide and peptidomimetic inhibitors” (Ra Pharmaceuticals, Inc., priority 2012, dated 2018).

Format in all cases: biochemical
One assay deals with T1, plasmin (Homo sapiens, UniProt P00747).
T1 construct: plasmin (Enzyme Research Laboratories, South Bend, Ind.); purchased Enzyme Research Laboratories
Nature of the assay: Inhibitor specificity IC50 assay, plasmin (Boc-Val-Leu-Lys-AMC). The note with it: substrate Boc-Val-Leu-Lys-AMC. Here is the method:
(§1) Activated human plasma kallikrein (Enzyme Research Laboratories, HPKa 1303) was reacted with H-Pro-Phe-Arg-7-amido-4-methylcoumarin (H-Pro-Pre-Arg-AMC) (a fluorogenic substrate for plasma as well as pancreatic and urinary kallikreins; Bachem I-1295) and candidate inhibitory peptides to determine the IC50 of the inhibitor.
(§2) Ten 8-fold serial dilutions of peptides (10 mM DMSO stocks) were performed in DMSO and then added to TCNB (50 mM Tris-HCl pH 7.2, 150 mM NaCl, 10 mM CaCl2, 0.05% Brij-35) and sonicated. 50 μL of the peptide dilutions were added to microtitre plates (96 well, black non-binding surface, Corning, 3650) and incubated for 5 minutes at room temperature with 4 nM activated human kallikrein (final concentration after addition of fluorogenic substrate: 1 nM). The samples were then incubated for 1 hour at room temperature with 2 mM H-Pro-Phe-Arg-AMC (final concentration 500 μM). Relative Fluorescence Units (RFU) were measured at excitation/emission 360 nm/460 nm by a SpectraMax M3.
(§3) To determine the specificity of peptide inhibitors, an IC50 assay, as described in Example 4, was performed on a variety of serine proteases related to human plasma kallikrein. The enzymes tested include mouse plasma kallikrein (R&D Systems, Minneapolis, Minn.), and the human enzymes Factor VIIa (Enzyme Research Laboratories, South Bend, Ind.), Factor Xa (Enzyme Research Laboratories, South Bend, Ind.), Factor XIa (Enzyme Research Laboratories, South Bend, Ind.), Factor XIIa (Enzyme Research Laboratories, South Bend, Ind.), tissue kallikrein KLK13 (R&D Systems, Minneapolis, Minn.), thrombin (Enzyme Research Laboratories, South Bend, Ind.) and plasmin (Enzyme Research Laboratories, South Bend, Ind.).
(§4) Each enzyme was tested with the following specific fluorgenic substrates (available from Bachem; Torrance, Calif.): mouse plasma kallikrein (Pro-Phe-Arg-AMC), Factor VIIa (Boc-Val-Pro-Arg-AMC), Factor Xa (Boc-Gln-Gly-Arg-AMC), Factor XIa (Boc-Gln-Gly-Arg-AMC), Factor XIIa (Boc-Gln-Gly-Arg-AMC), KLK13 (Boc-Val-Pro-Arg-AMC), thrombin (Boc-Val-Pro-Arg-AMC) and plasmin (Boc-Val-Leu-Lys-AMC). Peptide inhibitors R2006, R2010, R2012, R2019, R2023, R2030, R2036, R2041, R2047, R2104 and R2051 were assayed.

The target in the next assay is T2, Factor XIa (Homo sapiens, UniProt P03951).
T2 construct: Factor XIa (Enzyme Research Laboratories, South Bend, Ind.); purchased Enzyme Research Laboratories
T2 sequence (P03951 19-387 limits assumed): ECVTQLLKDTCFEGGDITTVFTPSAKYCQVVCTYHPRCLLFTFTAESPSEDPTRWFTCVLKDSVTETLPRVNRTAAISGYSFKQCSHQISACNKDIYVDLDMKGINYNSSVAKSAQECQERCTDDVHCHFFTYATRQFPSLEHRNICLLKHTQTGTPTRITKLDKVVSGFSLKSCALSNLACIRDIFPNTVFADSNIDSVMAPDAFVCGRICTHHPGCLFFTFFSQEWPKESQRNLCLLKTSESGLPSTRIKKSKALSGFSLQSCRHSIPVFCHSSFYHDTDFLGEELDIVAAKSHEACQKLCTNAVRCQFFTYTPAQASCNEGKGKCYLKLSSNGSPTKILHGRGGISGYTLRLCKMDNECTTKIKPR
T2 sequence (P03951 388-625 limits assumed): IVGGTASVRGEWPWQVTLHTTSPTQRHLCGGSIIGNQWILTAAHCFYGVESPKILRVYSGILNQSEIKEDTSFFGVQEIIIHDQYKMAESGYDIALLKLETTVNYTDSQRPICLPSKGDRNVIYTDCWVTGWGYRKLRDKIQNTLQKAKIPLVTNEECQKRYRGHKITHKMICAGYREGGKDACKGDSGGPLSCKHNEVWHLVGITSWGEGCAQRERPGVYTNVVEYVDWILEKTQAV
As to the kind of experiment: Inhibitor specificity IC50 assay, Factor XIa (Boc-Gln-Gly-Arg-AMC). The note with it: substrate Boc-Gln-Gly-Arg-AMC. How it is done:
as §1, §2, §3, §4

A further assay has as its target T3, tissue kallikrein KLK13 (Homo sapiens, UniProt Q9UKR3).
T3 construct: purchased R&D Systems
T3 sequence (Q9UKR3 17-277): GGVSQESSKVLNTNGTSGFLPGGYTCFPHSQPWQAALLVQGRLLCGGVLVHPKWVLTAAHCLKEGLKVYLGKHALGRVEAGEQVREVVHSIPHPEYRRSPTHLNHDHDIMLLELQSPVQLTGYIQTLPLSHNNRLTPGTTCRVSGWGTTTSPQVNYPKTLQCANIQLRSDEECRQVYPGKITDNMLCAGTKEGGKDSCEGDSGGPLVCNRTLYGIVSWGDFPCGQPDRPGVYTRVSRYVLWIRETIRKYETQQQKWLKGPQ
As to the kind of experiment: Inhibitor specificity IC50 assay, KLK13 (Boc-Val-Pro-Arg-AMC). The note with it: substrate Boc-Val-Pro-Arg-AMC. How it is done:
as §1, §2, §3, §4

The target of another assay is T4, thrombin (Homo sapiens, UniProt P00734).
T4 construct: thrombin (Enzyme Research Laboratories, South Bend, Ind.); purchased Enzyme Research Laboratories
Nature of the assay: Inhibitor specificity IC50 assay, thrombin (Boc-Val-Pro-Arg-AMC). The note with it: substrate Boc-Val-Pro-Arg-AMC. How it is done:
as §1, §2, §3, §4

In another assay the target is T5, Factor XIIa (Homo sapiens, UniProt P00748).
T5 construct: Factor XIIa (Enzyme Research Laboratories, South Bend, Ind.); purchased Enzyme Research Laboratories
T5 sequence (P00748 373-615 limits assumed): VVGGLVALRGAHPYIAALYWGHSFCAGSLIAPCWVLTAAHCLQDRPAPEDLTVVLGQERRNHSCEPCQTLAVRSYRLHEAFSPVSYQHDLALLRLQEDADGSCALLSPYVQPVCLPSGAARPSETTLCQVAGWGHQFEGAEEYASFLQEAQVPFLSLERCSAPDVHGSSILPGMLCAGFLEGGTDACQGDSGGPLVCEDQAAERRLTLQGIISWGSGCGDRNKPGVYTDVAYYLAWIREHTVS
As to the kind of experiment: Inhibitor specificity IC50 assay, Factor XIIa (Boc-Gln-Gly-Arg-AMC). To be noted: substrate Boc-Gln-Gly-Arg-AMC. How it is done:
as §1, §2, §3, §4

The target of another assay is T6, Factor VIIa (Homo sapiens, UniProt P08709).
T6 construct: Factor VIIa (Enzyme Research Laboratories, South Bend, Ind.); purchased Enzyme Research Laboratories
T6 sequence (P08709 61-212 limits assumed): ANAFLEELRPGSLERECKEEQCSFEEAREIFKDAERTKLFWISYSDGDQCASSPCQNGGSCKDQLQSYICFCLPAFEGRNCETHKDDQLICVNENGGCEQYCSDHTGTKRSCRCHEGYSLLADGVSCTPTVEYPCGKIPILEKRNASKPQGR
T6 sequence (P08709 213-466 limits assumed): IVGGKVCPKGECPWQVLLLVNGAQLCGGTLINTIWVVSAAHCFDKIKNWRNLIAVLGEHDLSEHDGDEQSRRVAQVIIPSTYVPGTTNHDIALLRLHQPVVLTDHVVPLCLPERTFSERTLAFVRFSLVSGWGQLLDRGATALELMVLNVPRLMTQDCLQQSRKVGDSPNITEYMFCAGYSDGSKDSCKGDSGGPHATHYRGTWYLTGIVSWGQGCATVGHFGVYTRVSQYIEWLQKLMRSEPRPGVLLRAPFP
As to the kind of experiment: Inhibitor specificity IC50 assay, Factor VIIa (Boc-Val-Pro-Arg-AMC). To be noted: substrate Boc-Val-Pro-Arg-AMC. How it is done: as §2, §3, §4

Another assay has as its target T7, Factor Xa (Homo sapiens, UniProt P00742).
T7 construct: Factor Xa (Enzyme Research Laboratories, South Bend, Ind.); purchased Enzyme Research Laboratories
As to the kind of experiment: Inhibitor specificity IC50 assay, Factor Xa (Boc-Gln-Gly-Arg-AMC). The note with it: substrate Boc-Gln-Gly-Arg-AMC. Here is the method: as §1, §2, §3, §4

The next assay concerns the target T8, human plasma kallikrein (Homo sapiens, UniProt P03952).
T8 construct: purchased Enzyme Research Laboratories HPKa 1303
Nature of the assay: Enzyme inhibition assay (fluorogenic substrate H-Pro-Phe-Arg-AMC). Put shortly: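 IC50 was determined from AMC fluorescence (ex 360/em 460 nm) after 1 h of reaction at room temperature with 500 μM final substrate. Before this, peptides in ten 8-fold serial dilutions were incubated 5 min with 1 nM final activated kallikrein. The buffer was Tris-HCl pH 7.2 containing NaCl, CaCl2 and Brij-35.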

[1] abbreviates: Kallikrein inhibitory activity, 1 nM activated human kallikrein, 500 μM H-Pro-Phe-Arg-AMC, 1 hour room temperature, read-out: Avg. IC50.

Where two headings read alike, the source gives them in different places. Numbered stars: 1 amine (or outer) side, 2 acyl side, 3 side chain; on linkers, the order of the positions; unused ones are H or OH. Bridge positions count the residues as written; N and C are the ends. Square brackets hold non-standard residues; d marks the D form. Peptide text beside a SMILES is read from it. mXylylene = c1cc(C[*:1])cc(C[*:2])c1; Phg = N[C@H](C(=O)O)c1ccccc1; Tle = CC(C)(C)[C@H](N)C(=O)O; Nva = CCC[C@H](N)C(=O)O A value given as a limit tells only on which side of the number the result lay.

T1 sequence (P00747 97-580 limits assumed): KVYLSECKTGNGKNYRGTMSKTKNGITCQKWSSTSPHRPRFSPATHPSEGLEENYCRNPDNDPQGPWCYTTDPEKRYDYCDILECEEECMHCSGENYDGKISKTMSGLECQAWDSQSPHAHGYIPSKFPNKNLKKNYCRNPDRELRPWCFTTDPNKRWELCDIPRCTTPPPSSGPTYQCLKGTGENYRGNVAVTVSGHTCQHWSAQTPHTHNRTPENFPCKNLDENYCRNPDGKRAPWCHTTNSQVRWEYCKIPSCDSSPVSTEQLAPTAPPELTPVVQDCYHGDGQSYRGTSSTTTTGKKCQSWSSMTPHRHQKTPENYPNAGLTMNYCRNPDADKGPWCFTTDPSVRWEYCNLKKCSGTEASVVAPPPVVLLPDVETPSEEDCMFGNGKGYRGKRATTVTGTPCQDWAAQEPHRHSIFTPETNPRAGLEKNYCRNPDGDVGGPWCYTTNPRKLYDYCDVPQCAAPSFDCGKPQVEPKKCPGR
T1 sequence (P00747 581-810 limits assumed): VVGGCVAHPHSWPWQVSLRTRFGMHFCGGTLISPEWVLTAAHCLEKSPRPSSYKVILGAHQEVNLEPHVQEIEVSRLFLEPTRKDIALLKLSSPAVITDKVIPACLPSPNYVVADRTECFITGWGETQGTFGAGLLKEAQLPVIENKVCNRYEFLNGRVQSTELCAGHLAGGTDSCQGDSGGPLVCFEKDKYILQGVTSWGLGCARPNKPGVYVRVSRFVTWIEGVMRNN
T7 sequence (P00742 41-179 limits assumed): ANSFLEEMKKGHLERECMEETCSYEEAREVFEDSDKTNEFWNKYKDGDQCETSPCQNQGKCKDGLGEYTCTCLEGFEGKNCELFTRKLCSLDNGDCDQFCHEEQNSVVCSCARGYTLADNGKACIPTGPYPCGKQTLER
T7 sequence (P00742 235-488 limits assumed): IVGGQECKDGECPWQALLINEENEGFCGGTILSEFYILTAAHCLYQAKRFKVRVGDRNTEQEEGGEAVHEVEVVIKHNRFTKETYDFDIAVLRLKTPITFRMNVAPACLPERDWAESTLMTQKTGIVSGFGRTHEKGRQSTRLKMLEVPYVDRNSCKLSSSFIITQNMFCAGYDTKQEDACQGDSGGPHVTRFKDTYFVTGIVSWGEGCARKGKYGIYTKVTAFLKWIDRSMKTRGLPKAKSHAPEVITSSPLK
T8 sequence (P03952 20-390 limits assumed): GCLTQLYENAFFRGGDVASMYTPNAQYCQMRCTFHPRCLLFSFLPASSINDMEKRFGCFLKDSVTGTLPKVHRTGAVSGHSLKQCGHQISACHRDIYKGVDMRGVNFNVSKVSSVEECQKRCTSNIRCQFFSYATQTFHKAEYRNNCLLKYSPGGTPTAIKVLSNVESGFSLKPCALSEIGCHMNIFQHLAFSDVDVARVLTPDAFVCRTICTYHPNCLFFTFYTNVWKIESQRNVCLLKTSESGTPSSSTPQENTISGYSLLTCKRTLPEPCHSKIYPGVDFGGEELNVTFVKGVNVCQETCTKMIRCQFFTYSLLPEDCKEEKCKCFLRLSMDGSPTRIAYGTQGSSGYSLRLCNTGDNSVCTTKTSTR
T8 sequence (P03952 391-638 limits assumed): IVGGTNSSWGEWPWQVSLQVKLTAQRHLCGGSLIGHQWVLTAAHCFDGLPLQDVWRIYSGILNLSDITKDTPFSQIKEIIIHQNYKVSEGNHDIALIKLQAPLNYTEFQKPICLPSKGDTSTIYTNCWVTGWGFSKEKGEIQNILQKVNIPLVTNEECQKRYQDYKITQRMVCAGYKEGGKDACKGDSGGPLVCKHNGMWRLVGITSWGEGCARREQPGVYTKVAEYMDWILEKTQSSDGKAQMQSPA

Consider `CC[C@H](C)[C@@H]1NC(=O)[C@H](CO)NC(=O)[C@H](CCC(=O)O)NC(=O)[C@@H](NC(=O)[C@@H](N)CCSC)CSCc2cccc(c2)CSC[C@@H](C(=O)N[C@@H](CCCNC(=N)N)C(=O)N[C@H](C(N)=O)C(C)C)NC1=O` [Compound R2006, [mXylyl(2,6)]MCESICRV-NH2] (H-MCESICRV-NH2; linker 2-6 via mXylylene), for which the half-inhibitory concentration (IC50) against plasmin is above 100 µM; against Factor XIa, above 11.6 µM; on tissue kallikrein KLK13, above 100 µM; against thrombin, above 100 µM; against Factor XIIa, above 100 µM; against Factor VIIa, above 100 µM. Moreover, the concentration for half-maximal inhibition (IC50) was above 7 µM against Factor Xa and 0.025 µM on human plasma kallikrein (Inhibitor specificity table, read-out: Human Kallikrein IC50).
As for `CC[C@H](C)[C@@H]1NC(=O)[C@H](CO)NC(=O)[C@H](CCC(=O)O)NC(=O)[C@@H](NC(=O)[C@@H](N)CCSC)CSCc2cccc(c2)CSC[C@@H](C(=O)N[C@@H](CCCNC(=N)N)C(=O)N[C@H](C(N)=O)C(C)(C)C)NC1=O` [Compound R2010, [mXylyl(2,6)]MCESICR-Tbg-NH2] (H-MCESICR[Tle]-NH2; linker 2-6 via mXylylene; N-terminus assumed), the IC50 is above 100 µM against plasmin; above 15 µM on Factor XIa; above 100 µM at tissue kallikrein KLK13; above 100 µM against thrombin; above 100 µM against Factor XIIa; above 100 µM against Factor VIIa. Besides, the IC50 against Factor Xa is above 100 µM; at human plasma kallikrein (setting [1]), 0.0099 µM.
Take `CCC[C@H](N)C(=O)N[C@H]1CSCc2cccc(c2)CSC[C@@H](C(=O)N[C@@H](CCCNC(=N)N)C(=O)N[C@H](C(N)=O)C(C)(C)C)NC(=O)[C@H](c2ccccc2)NC(=O)[C@@H]2CCCN2C(=O)[C@H](CCC(=O)O)NC1=O` [Compound R2030, [mXylyl(2,6)]Nvl-CEP-Phg-CR-Tbg-NH2] (H-[Nva]CEP[Phg]CR[Tle]-NH2; linker 2-6 via mXylylene): the half-inhibitory concentration (IC50) at plasmin was above 100 µM; against Factor XIa, above 10.4 µM; at tissue kallikrein KLK13 it was above 100 µM; against thrombin, above 100 µM; at Factor XIIa it was above 100 µM; on Factor VIIa, above 100 µM. Moreover, the IC50 against Factor Xa is above 100 µM; at human plasma kallikrein (setting [1]), 0.025 µM.
Turning to `CC[C@H](C)[C@@H]1NC(=O)[C@H](CO)NC(=O)[C@H](CCC(=O)O)NC(=O)[C@@H](NC(C)=O)CSCc2cccc(c2)CSC[C@@H](C(=O)N[C@@H](CCCNC(=N)N)C(=O)N[C@H](C(N)=O)C(C)C)NC1=O` [Compound R2023, [mXylyl(1,5)]Ac-CESICRV-NH2] (Ac-CESICRV-NH2; linker 1-5 via mXylylene), the IC50 was above 100 µM against plasmin; above 12.1 µM on Factor XIa; above 100 µM against tissue kallikrein KLK13; above 100 µM on thrombin; above 100 µM at Factor XIIa; above 100 µM against Factor VIIa. Further, the IC50 against Factor Xa is above 7 µM; on human plasma kallikrein (setting [1]) it was 0.019 µM.
